Consider 111 compounds from a melting point compilation (Tetko et al.).

In the case of `CCOc1ccc(N=C=S)cc1`, the melting point (commonly the temperature, or range, at which the solid turns liquid) was 60 to 61 °C.

Take `NCCCC1C=NNC1=O` (stereo unspecified): the melting point was determined as 216 °C.

`OCCC12CC3CC(CC(C3)C1)C2` had a melting point of 74 °C.

On to `Cn1c(=O)c(C2=NNC(=O)C2=NNc2ccc(Cl)cc2)c(O)c2ccccc21`, for which the melting point was 240 °C.

The compound `C=C(C)CCCCCCCCCCCCCCC` had a melting point of 9 °C.

`CNc1ccc(C#N)cc1N` displayed a melting point of 139 to 142 °C.

For the compound `CC(c1ccc(OC(F)=C(F)F)cc1)(c1ccc(OC(F)=C(F)F)cc1)c1ccc(OC(F)=C(F)F)cc1`, the melting point fell in the range of 31 to 32 °C.

As for `c1ccc2c(c1)OCCOCCOCCOCCOc1ccccc1OCCOCCO2`, the melting point fell in the range of 59 to 63 °C.

`CC(=O)OC1CC[C@@]2(C)C(CC[C@@H]3[C@@H]2CC[C@@]2(C)[C@H]3CC[C@]2(O)C#Cc2ccccc2)C1` (stereo partly specified) gave a melting point of 170 to 171 °C.

On to `O=[N+]([O-])c1ccc(CCc2ccc([N+](=O)[O-])cc2)cc1`, for which the melting point came to 181 °C.

`Fc1ccc(-c2ccno2)cc1`: the melting point turned out to be 55 °C.

`CCCCCC(O)CCCCC`: the melting point was found to be 25 °C.

On to `C=CC1(OC(C)=O)CCC2(C)C(CCC3C2CCC2(C)C3CCC23OCCO3)C1` (stereo unspecified), for which the melting point was 101 to 109 °C.

`C#CC(C)OC(=O)Nc1cccc(Cl)c1` (stereo unspecified) gave a melting point of 45.5 °C.

`COc1ccc2c(c1)CC2C(=O)O` (stereo unspecified): the melting point is 83 to 89 °C.

In turn, `OCN(CO)c1nc(N(CO)CO)nc(N(CO)CO)n1` displayed a melting point of 137 °C.

The compound `COc1cccc(C(=O)O)c1OC` yielded a melting point of 123 °C.

In the case of `C=COCCCl`, the melting point was -70 °C.

As for `Cc1ccc(C(=O)N(C)C)cc1`, the melting point came to 41 °C.

Turning to `Nc1cc2ccccc2cc1C(=O)O`, the melting point is 216 °C.

`COc1ccc(OC)c2c(=O)c(=O)c12` registered a melting point of 191 °C.

In turn, `CC(C)(C)c1ccc(CSc2cnn(C(C)(C)C)c(=O)c2Cl)cc1` returned a melting point of 112 °C.

With `OC(CCN1CCCCC1)(c1ccccc1)c1ccccc1`, the melting point turned out to be 120 °C.

`O=[N+]([O-])c1ccc(Nc2ccccc2)cc1`: the melting point came out at 135 °C.

`COC(=O)c1cnc(S)n1C`: the melting point was 207 °C.

`OC1NN(c2ccccc2)C(O)C1=Cc1ccc2c(c1)OCO2` (stereo unspecified) came in with a melting point of 290 °C.

`Nc1c(F)c(F)c(-c2c(F)c(F)c(N)c(F)c2F)c(F)c1F` returned a melting point of 175 to 179 °C.

Take `CCC(=C(c1ccccc1)c1ccc(OCCN(C)C)cc1)c1ccccc1`: the melting point is 96 °C.

For `CC(C)Cc1ccc(C(=O)C=Cc2cccc([N+](=O)[O-])c2)cc1`, the melting point is 104 to 107 °C.

Compound `O=C(CCl)Nc1ccccc1Cl` gave a melting point of 70 to 73 °C.

Turning to `CC(C)N1CSc2nnc(-c3ccccc3)n2C1`, the melting point lay in the range of 225 to 226 °C.

`CC12CCC3C(CCC4CC=CCC43C)C1CC=C2CCc1ccccc1` (stereo unspecified) had a melting point of 118 °C.

In turn, `N#CC1=C(N)N2C(=C(C#N)C1c1ccc(Cl)cc1)Sc1ccccc12` (stereo unspecified) came in with a melting point of 209 °C.

In turn, `O=C(O)c1ccccc1CS(=O)c1ccccc1` (stereo unspecified) yielded a melting point of 185 to 187 °C.

With `Cc1cncc(N2CCC(CO)CC2)n1`, the melting point was 103 to 107 °C.

Regarding `FC(F)(F)C(F)(F)C(F)(F)C(F)(F)C(F)(F)C(F)(F)I`, the melting point was -45 °C.

`Cc1ccc(C(=O)c2nn(-c3ccccc3)/c(=N\N=Cc3ccco3)s2)cc1` came in with a melting point of 113 °C.

Take `CCC(=O)C(C)(C)C`: the melting point was -45 °C.

On to `NC(=O)c1ccc2ccccc2c1`, for which the melting point stood at 195 °C.

The compound `C=CC1CO1` (stereo unspecified) had a melting point of -135 °C.

Compound `C=C1C(=O)C23C(OC)CC4C5(C)CCCC4(COC5=O)C2C(OC(C)=O)CC1C3O` (stereo unspecified) gave a melting point of 126 to 127 °C.

The compound `CC(=O)c1sc(-c2ccccc2)cc1N` yielded a melting point of 135 to 137 °C.

In turn, `COC1=CC(=O)C(C#N)C(c2ccccc2)C1` (stereo unspecified) displayed a melting point of 167 °C.

For the compound `Nc1[nH]c(=O)[nH]c(=O)c1N=O`, the melting point was found to be 280 °C.

`FC(F)(F)C(F)(F)C(F)(F)F` registered a melting point of -148 °C.

For `CN(C)C1C(=O)C(=C(N)O)C(=O)C2(O)C(=O)C3=C(O)c4c(O)cccc4C(C)(O)C3C(O)C12` (stereo unspecified), the melting point worked out at 121 °C.

As to `BrCc1ccc(-c2ccsc2)cc1`, the melting point was in the range of 107 to 109 °C.

For `Cc1oc(S(=O)(=O)N2CCCCC2)cc1C(=O)O`, the melting point is 194 to 195 °C.

In turn, `CC12CCC3C(C(=O)CC4CC(=O)CCC43C)C1CCC2=O` (stereo unspecified) had a melting point of 229 to 234 °C.

Regarding `C#CC1(O)CCC2C3CCC4=CC(=O)CCC4C3CCC21C` (stereo unspecified), the melting point worked out at 204 °C.

Compound `COC(=O)C(OC)C(=O)OC` had a melting point of 11 to 12 °C.

As to `O=C1OCCO1`, the melting point was 39.5 °C.

Compound `CC12NC(Cc3ccccc31)c1ccccc12` (stereo unspecified) had a melting point of 68.8 °C.

Take `CC(=O)CC(c1ccc([N+](=O)[O-])cc1)c1c(O)oc2ccccc2c1=O` (stereo unspecified): the melting point is 197 °C.

Compound `CC(=O)OC1CCC2(C)C(C1)CC1(OCCO1)C1C3CCC(=O)C3(C)CCC12` (stereo unspecified) showed a melting point of 240 °C.

`O=C(O)C(=O)Cc1c[nH]c2ccccc12` gave a melting point of 215 °C.

In the case of `COc1nc2c(c(=O)n(C)c(=O)n2C)n1C`, the melting point worked out at 176 °C.

For `C1CCC(P(CP(C2CCCCC2)C2CCCCC2)C2CCCCC2)CC1`, the melting point stood at 99 °C.

The compound `FC(F)(F)N=C1SC(=Nc2ccccc2)N(c2ccccc2)C1=NC(F)(F)F` registered a melting point of 118 °C.

In turn, `CC1CC(=O)CC2CCC3C4CCC(O)C4(C)CCC3C12C` (stereo unspecified) yielded a melting point of 204 °C.

In turn, `O=C(O)c1[nH]c2ccc([N+](=O)[O-])cc2c1-c1ccccc1` showed a melting point of 290 °C.

As to `NC(=O)C(F)(F)Cl`, the melting point stood at 82 °C.

The compound `Cc1nc(-c2cnccn2)sc1C(=O)O` registered a melting point of 237 to 238 °C.

For the compound `C#CC#C`, the melting point was -36.4 °C.

In the case of `NC(=O)c1ccc(-c2ccccn2)s1`, the melting point was 197 to 199 °C.

In turn, `Cc1ccc(NN=C2C(=O)OC(C)(C)OC2=O)cc1` showed a melting point of 130 °C.

With `CCC(C)c1ccccc1OC(=O)NC` (stereo unspecified), the melting point is 31.5 °C.

`Cc1oc(-c2ccccc2)nc1CO` yielded a melting point of 117 to 118 °C.

In turn, `Cn1c(/C(C#N)=C/c2c(Cl)cccc2Cl)nc2ccccc21` came in with a melting point of 185 °C.

Consider `Cc1cc(C(=O)O)n(C)n1`, for which the melting point is 209 to 211 °C.

As for `C#CC(C)(C)Oc1ccc(C#N)cc1`, the melting point is 30 to 32 °C.

Take `Ic1cc2ccccc2c2ccccc12`: the melting point came to 92 °C.

Consider `NC(=S)c1cc(Cl)nc(Cl)c1`, for which the melting point was 145 to 150 °C.

Regarding `ClCCc1ccccc1`, the melting point is -60 °C.

Compound `Nc1nc(NC2CC2)c2ncn(C3C=CC(CO)C3)c2n1` (stereo unspecified) showed a melting point of 165 °C.

`CC(C)(C)OC(=O)N1CCN(Cc2cccc(C=O)c2)CC1` showed a melting point of 67 to 68 °C.

Regarding `Cc1cc(Br)cc(Br)c1N`, the melting point was in the range of 44 to 49 °C.

Regarding `CCCCCCCCOc1ccc(NC(=O)c2ccc(C)cc2)cc1`, the melting point was 140 to 142 °C.

The compound `CCc1cc(C(N)=S)ccn1` yielded a melting point of 164 °C.

Consider `CCC1(O)CCCCC1`, for which the melting point is 34.5 °C.

Regarding `Nc1ccc(Nc2ccccc2)c2c1C(=O)c1ccccc1C2=O`, the melting point worked out at 192 °C.

`COC(=O)c1ccccc1CS(=O)(=O)NC(=O)Nc1nc(OC)cc(OC)n1` gave a melting point of 187 °C.

Compound `O=C(O)C(F)(F)C(F)(F)C(F)(F)C(=O)O` came in with a melting point of 94.5 °C.

Consider `Cc1cccc(Cn2nc(C(C)(C)C)cc2-c2nnc(S)o2)c1`, for which the melting point was 129 to 131 °C.

Compound `CS(=O)(=O)CC#N` registered a melting point of 84 °C.

Compound `Cc1c(O)c(C)c(CCl)c(C)c1CCl` showed a melting point of 135 to 140 °C.

`NC(=O)c1sc(Nc2ccc(Cl)cc2)nc1N` came in with a melting point of 220 to 222 °C.

Compound `CCOC(=O)c1cc(C)n(CO)n1` showed a melting point of 71 °C.

Consider `Nc1c(C(=O)O)cnc2c(C(=O)O)cnn12`, for which the melting point was 256 °C.

As for `C=C(C)C=C(C)C`, the melting point was -114 °C.

Regarding `COc1ccc([N+](=O)[O-])cn1`, the melting point turned out to be 108 °C.

On to `CNC(=O)ON=CC(C)(C)S(C)(=O)=O`, for which the melting point was determined as 141 °C.

In turn, `O=C(O)COc1cc(Cl)c(Cl)cc1Cl` registered a melting point of 156 °C.

Compound `CSc1nc2nc(C)cc(C)c2c(=O)[nH]1` had a melting point of 242 to 244 °C.

For the compound `O=C(Nc1ccc([N+](=O)[O-])cc1Cl)c1cc(Cl)ccc1O`, the melting point worked out at 230 °C.

In turn, `Cn1nc(N)c2c(=O)cc[nH]c21` returned a melting point of 215 to 220 °C.

Compound `CCCC(=O)c1ccc(F)cc1` had a melting point of 37 °C.

`O=C(O)c1cccc2c1C(=O)c1ccccc1-2` gave a melting point of 194 to 198 °C.

Consider `CCCCCC(=O)c1ccc(O)cc1O`, for which the melting point stood at 57 °C.

The compound `Oc1ccccc1C=Nn1c(S)nnc1C(F)(F)F` showed a melting point of 155 °C.

Consider `CCOC(=O)NC(N)=O`, for which the melting point amounted to 196 °C.

As for `O=S(=O)(Cl)c1ccc(Oc2ccccc2Cl)cc1`, the melting point fell in the range of 89 to 90 °C.

`CCCCN1CCOCC1` had a melting point of -57.1 °C.

As for `Nc1ccc2ccccc2c1N`, the melting point stood at 98.5 °C.

`C=C[Si](OC(C)=O)(OC(C)=O)OC(C)=O` displayed a melting point of 7 °C.

Take `Cc1ccc(NC(=O)C(F)(F)C(F)(F)C(F)(F)C(F)(F)C(F)(F)C(F)(F)C(F)(F)C(F)(F)F)cc1C`: the melting point was found to be 111 °C.

In the case of `O=C(/C(=N/Nc1ccc(Cl)cc1Cl)S(=O)(=O)c1ccccc1)c1cccc2ccccc12`, the melting point stood at 162 °C.

With `CN(C)c1cccc(N(C)C)c1C#N`, the melting point was 71 to 73 °C.

`O=C(O)c1cccc(Oc2ccccn2)c1` returned a melting point of 108 to 112 °C.

Regarding `FCCCl`, the melting point is -50 °C.

In turn, `CC(=O)OOC(C)=O` yielded a melting point of 30 °C.
